# Assay results published in ChEMBL document CHEMBL1201862, “PubChem BioAssay data set” (2004).
#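 Each compound was tested at five concentrations against cells in 96-well plates for 48 hours. GI50 is the concentration that inhibits growth by half.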 The source made the active and inactive calls. Rule as the data show it: active = GI50 up to about 1.1 µM and inactive = higher.
# Experiments:
# Experiment in all cases: NCI-60 cell line screen, 48 h
# 786-0 = system: 786-0
# A498 = system: A498
# A549 = system: A549
# ACHN = system: ACHN
# BT-549 = system: BT-549
# CAKI-1 = system: CAKI-1
# CCRF-CEM = system: CCRF-CEM
# COLO 205 = system: COLO 205
# DU-145 = system: DU-145
# EKVX = system: EKVX
# HCC 2998 = system: HCC 2998
# HCT-116 = system: HCT-116
# HCT-15 = system: HCT-15
# HL-60 = system: HL-60
# HOP-62 = system: HOP-62
# HOP-92 = system: HOP-92
# HT-29 = system: HT-29
# IGROV-1 = system: IGROV-1
# K562 = system: K562
# KM12 = system: KM12
# LOX IMVI = system: LOX IMVI
# M14 = system: M14
# MCF7 = system: MCF7
# MDA-MB-231 = system: MDA-MB-231
# MDA-MB-435 = system: MDA-MB-435
# MDA-N = system: MDA-N
# MOLT-4 = system: MOLT-4
# Malme-3M = system: Malme-3M
# NCI-H226 = system: NCI-H226
# NCI-H23 = system: NCI-H23
# NCI-H460 = system: NCI-H460
# NCI-H522 = system: NCI-H522
# NCI/ADR-RES = system: NCI/ADR-RES
# OVCAR-3 = system: OVCAR-3
# OVCAR-4 = system: OVCAR-4
# OVCAR-5 = system: OVCAR-5
# OVCAR-8 = system: OVCAR-8
# PC-3 = system: PC-3
# RPMI-8226 = system: RPMI-8226
# RXF 393 = system: RXF 393
# SF-268 = system: SF-268
# SF-295 = system: SF-295
# SF-539 = system: SF-539
# SK-MEL-28 = system: SK-MEL-28
# SK-MEL-2 = system: SK-MEL-2
# SK-MEL-5 = system: SK-MEL-5
# SK-OV-3 = system: SK-OV-3
# SN12C = system: SN12C
# SNB-19 = system: SNB-19
# SNB-75 = system: SNB-75
# SR = system: SR
# SW-620 = system: SW-620
# T47D = system: T47D
# TK-10 = system: TK-10
# U-251 = system: U-251
# UACC-257 = system: UACC-257
# UACC-62 = system: UACC-62
# UO-31 = system: UO-31
smiles,measurement,setting,value
CN1C(=O)[C@](C)(Cc2ccc(F)cc2)N(C(=O)OC(C)(C)C)[C@@H]1C(C)(C)C,GI50,786-0,29.3 µM (inactive)
same,GI50,A498,23.4 µM (inactive)
same,GI50,A549,42.4 µM (inactive)
same,GI50,ACHN,37.7 µM (inactive)
same,GI50,BT-549,34.4 µM (inactive)
same,GI50,CAKI-1,36.4 µM (inactive)
same,GI50,CCRF-CEM,40.9 µM (inactive)
same,GI50,COLO 205,19.5 µM (inactive)
same,GI50,DU-145,42.3 µM (inactive)
same,GI50,EKVX,47.1 µM (inactive)
same,GI50,HCC 2998,24.3 µM (inactive)
same,GI50,HCT-116,30 µM (inactive)
same,GI50,HCT-15,37.8 µM
same,GI50,HL-60,11.4 µM (inactive)
same,GI50,HOP-62,40.7 µM (inactive)
same,GI50,HOP-92,30.7 µM (inactive)
same,GI50,HT-29,22.1 µM (inactive)
same,GI50,IGROV-1,43.9 µM (inactive)
same,GI50,K562,25.6 µM (inactive)
same,GI50,KM12,30.5 µM (inactive)
same,GI50,LOX IMVI,21.6 µM (inactive)
same,GI50,M14,41.6 µM (inactive)
same,GI50,MCF7,22.8 µM (inactive)
same,GI50,MDA-MB-231,38.1 µM (inactive)
same,GI50,MDA-MB-435,39.3 µM (inactive)
same,GI50,MDA-N,37.4 µM (inactive)
same,GI50,MOLT-4,17.9 µM (inactive)
same,GI50,Malme-3M,> 100 µM (inactive)
same,GI50,NCI-H226,23.6 µM (inactive)
same,GI50,NCI-H23,33.1 µM (inactive)
same,GI50,NCI-H460,31.5 µM (inactive)
same,GI50,NCI-H522,23.1 µM (inactive)
same,GI50,NCI/ADR-RES,20.4 µM (inactive)
same,GI50,OVCAR-3,31.5 µM (inactive)
same,GI50,OVCAR-4,43.1 µM (inactive)
same,GI50,OVCAR-5,> 100 µM (inactive)
same,GI50,OVCAR-8,28.8 µM (inactive)
same,GI50,PC-3,30.5 µM (inactive)
same,GI50,RPMI-8226,22.4 µM (inactive)
same,GI50,RXF 393,21.3 µM (inactive)
same,GI50,SF-268,55.3 µM (inactive)
same,GI50,SF-295,20.3 µM (inactive)
same,GI50,SF-539,41.2 µM (inactive)
same,GI50,SK-MEL-28,55.3 µM (inactive)
same,GI50,SK-MEL-2,31.3 µM (inactive)
same,GI50,SK-MEL-5,19.6 µM (inactive)
same,GI50,SK-OV-3,43.9 µM (inactive)
same,GI50,SN12C,17.9 µM (inactive)
same,GI50,SNB-19,> 100 µM (inactive)
same,GI50,SNB-75,29.2 µM (inactive)
same,GI50,SR,21.2 µM (inactive)
same,GI50,SW-620,37.3 µM (inactive)
same,GI50,T47D,26.7 µM (inactive)
same,GI50,TK-10,80.9 µM (inactive)
same,GI50,U-251,29.6 µM (inactive)
same,GI50,UACC-257,30.5 µM (inactive)
same,GI50,UACC-62,32 µM (inactive)
same,GI50,UO-31,33.6 µM (inactive)
O=c1c2ccc(Cl)cc2oc2c(CNc3ccc(S(=O)(=O)Nc4nccs4)cc3)cccc12,GI50,786-0,> 100 µM (inactive)
same,GI50,A498,> 100 µM (inactive)
same,GI50,A549,> 100 µM (inactive)
same,GI50,ACHN,> 100 µM (inactive)
same,GI50,BT-549,> 100 µM (inactive)
same,GI50,CAKI-1,0.951 µM (active)
same,GI50,CCRF-CEM,91.6 µM (inactive)
same,GI50,COLO 205,> 100 µM (inactive)
same,GI50,DU-145,> 100 µM (inactive)
same,GI50,EKVX,> 100 µM (inactive)
same,GI50,HCC 2998,> 100 µM (inactive)
same,GI50,HCT-116,> 100 µM (inactive)
same,GI50,HCT-15,> 100 µM
same,GI50,HOP-62,> 100 µM (inactive)
same,GI50,HOP-92,31.2 µM (inactive)
same,GI50,HT-29,> 100 µM (inactive)
same,GI50,IGROV-1,> 100 µM (inactive)
same,GI50,K562,> 100 µM (inactive)
same,GI50,KM12,> 100 µM (inactive)
same,GI50,LOX IMVI,> 100 µM (inactive)
same,GI50,M14,> 100 µM (inactive)
same,GI50,MCF7,> 100 µM (inactive)
same,GI50,MDA-MB-231,98.6 µM (inactive)
same,GI50,MDA-MB-435,> 100 µM (inactive)
same,GI50,MDA-N,> 100 µM (inactive)
same,GI50,MOLT-4,> 100 µM (inactive)
same,GI50,Malme-3M,> 100 µM (inactive)
same,GI50,NCI-H226,> 100 µM (inactive)
same,GI50,NCI-H23,> 100 µM (inactive)
same,GI50,NCI-H522,> 100 µM (inactive)
same,GI50,NCI/ADR-RES,> 100 µM (inactive)
same,GI50,OVCAR-3,> 100 µM (inactive)
same,GI50,OVCAR-4,> 100 µM (inactive)
same,GI50,OVCAR-5,> 100 µM (inactive)
same,GI50,OVCAR-8,> 100 µM (inactive)
same,GI50,PC-3,> 100 µM (inactive)
same,GI50,RPMI-8226,> 100 µM (inactive)
same,GI50,RXF 393,> 100 µM (inactive)
same,GI50,SF-268,> 100 µM (inactive)
same,GI50,SF-295,> 100 µM (inactive)
same,GI50,SF-539,99.1 µM (inactive)
same,GI50,SK-MEL-28,> 100 µM (inactive)
same,GI50,SK-MEL-2,> 100 µM (inactive)
same,GI50,SK-MEL-5,> 100 µM (inactive)
same,GI50,SK-OV-3,> 100 µM (inactive)
same,GI50,SN12C,> 100 µM (inactive)
same,GI50,SNB-19,> 100 µM (inactive)
same,GI50,SR,> 100 µM (inactive)
same,GI50,SW-620,> 100 µM (inactive)
same,GI50,T47D,> 100 µM (inactive)
same,GI50,TK-10,> 100 µM (inactive)
same,GI50,U-251,> 100 µM (inactive)
same,GI50,UACC-257,> 100 µM (inactive)
same,GI50,UACC-62,> 100 µM (inactive)
same,GI50,UO-31,> 100 µM (inactive)
CN(C)CCCNC(=O)c1cc(NC(=O)CCCn2c3ccccc3c3ccccc32)cn1C,GI50,786-0,80.9 µM (inactive)
same,GI50,A498,17.7 µM (inactive)
same,GI50,A549,20.7 µM (inactive)
same,GI50,ACHN,26.9 µM (inactive)
same,GI50,BT-549,> 100 µM (inactive)
same,GI50,CAKI-1,21.8 µM (inactive)
same,GI50,CCRF-CEM,29.6 µM (inactive)
same,GI50,COLO 205,21.9 µM (inactive)
same,GI50,DU-145,> 100 µM (inactive)
same,GI50,EKVX,15.6 µM (inactive)
same,GI50,HCT-116,25.9 µM (inactive)
same,GI50,HCT-15,45.7 µM
same,GI50,HL-60,22.5 µM (inactive)
same,GI50,HOP-62,> 100 µM (inactive)
same,GI50,HOP-92,2.13 µM (inactive)
same,GI50,HT-29,47.6 µM (inactive)
same,GI50,IGROV-1,6.64 µM (inactive)
same,GI50,K562,31.6 µM (inactive)
same,GI50,KM12,21.4 µM (inactive)
same,GI50,LOX IMVI,31 µM (inactive)
same,GI50,M14,28.1 µM (inactive)
same,GI50,MCF7,35.5 µM (inactive)
same,GI50,MDA-MB-231,21 µM (inactive)
same,GI50,MDA-MB-435,24.3 µM (inactive)
same,GI50,MDA-N,35.1 µM (inactive)
same,GI50,MOLT-4,11.4 µM (inactive)
same,GI50,Malme-3M,17.2 µM (inactive)
same,GI50,NCI-H226,25.3 µM (inactive)
same,GI50,NCI-H23,31.8 µM (inactive)
same,GI50,NCI-H460,28.8 µM (inactive)
same,GI50,NCI/ADR-RES,> 100 µM (inactive)
same,GI50,OVCAR-3,11.5 µM (inactive)
same,GI50,OVCAR-4,43.1 µM (inactive)
same,GI50,OVCAR-5,73.6 µM (inactive)
same,GI50,OVCAR-8,48.3 µM (inactive)
same,GI50,PC-3,20.7 µM (inactive)
same,GI50,RPMI-8226,17.1 µM (inactive)
same,GI50,RXF 393,32.8 µM (inactive)
same,GI50,SF-268,66.7 µM (inactive)
same,GI50,SF-295,25.9 µM (inactive)
same,GI50,SF-539,71.3 µM (inactive)
same,GI50,SK-MEL-28,49.7 µM (inactive)
same,GI50,SK-MEL-2,34.8 µM (inactive)
same,GI50,SK-MEL-5,16.7 µM (inactive)
same,GI50,SK-OV-3,> 100 µM (inactive)
same,GI50,SN12C,48.5 µM (inactive)
same,GI50,SNB-19,25 µM (inactive)
same,GI50,SNB-75,43 µM (inactive)
same,GI50,SW-620,> 100 µM (inactive)
same,GI50,T47D,19.1 µM (inactive)
same,GI50,TK-10,22.5 µM (inactive)
same,GI50,U-251,37.3 µM (inactive)
same,GI50,UACC-62,20.8 µM (inactive)
same,GI50,UO-31,25.5 µM (inactive)
